Experimental data reported in US10434083B2, “Transmammary delivery of cyclooxygenase-2 inhibitors for analgesia in neonates” (Iowa State University Research Foundation, Inc., priority 2018, dated 2019).
Read-outs that look alike come from different tables or passages of the source.

What was measured:
[1] = Necropsy and histopathology examination of lactating sows at 21 d; conditions: for Kidney: Focal interstitial nephritis (number of sows) / Kidney: Mild tubular ectasia (number of sows) / Kidney: Within normal limits (number of sows) / Liver: Within normal limits (number of sows) / Small Intestine: Within normal limits (number of sows) / Stomach: Within normal limits (number of sows): 21 d
Protocol: Thereafter, sows and piglets in all groups were humanely euthanized and examined for macroscopic signs of NSAID toxicity. Necropsies were performed on all animals to inspect for macroscopic signs of NSAID toxicity. Samples of kidney, liver, small intestine and stomach were sectioned into 0.5-1 cm slices and placed in plastic jars containing 10% buffered formalin in a 10:1 formalin:tissue ratio for histopathology examination.
Formalin-fixed sections of kidney, liver, small intestine and stomach from sows and 3 piglets/litter were trimmed and positioned in cassettes loaded into an automated tissue processor (Sakura VIP 5, Sakura Finetek, Torrance, Calif.) for overnight paraffin infiltration. Processed tissues in cassettes were then placed in a paraffin bath (Sakura Tissue-Tek TEC 5, Sakura Finetek, Torrance, Calif.) after which they were removed from the cassette and oriented in molds. […] Tissue sections were cut at 4 microns from the cooled blocks. Paraffin ribbons with tissue were then laid out on a water bath and the floating tissue sections were collected onto microscope slides. The unstained tissue sections were then mounted on the slide and dried at 60° C. for 20 minutes. Finally, the tissue was deparaffinized and rehydrated for staining by transfer through xylene and a series of decreasing concentrations of alcohol to hematoxylin on an automated stainer (Sakura Tissue-Tek Prisma, Sakura Finetek, Torrance, Calif.). After a tap water rinse, the tissue on the slide was counterstained with eosin, dehydrated in an alcohol series, cleared in xylene and cover slipped (Sakura Tissue-Tek Glas g2) prior to histological examination by a veterinary diagnostician with experience in the histological examination of swine tissues.

[2] = Plasma firocoxib in nursing piglets after transmammary delivery (Example 1); format: in vivo, swine; conditions: piglets nursing sow given 1.5 mg/kg IM; from 2 hours post-exposure to end of study (48 h)
Protocol: (§1) Blood (sodium heparin tubes) was collected from the sow via jugular venipuncture at the following time points after drug administration via injection to the sow: 0, 1, 2, 3, 4, 6, 8, 10, 12, 24, 36 and 48 hours. The piglets had blood collected via jugular venipuncture at the following timepoints following sow drug administration via injection:
Piglets 1-3 was bled at times 0, 3, 8 and 24 hours
Piglets 4-6 was bled at times 1, 4, 10 and 36 hours
Piglets 7-9 was bled at times 2, 6, 12 and 48 hours.
Approximately 10 mL of blood was collected from the sow at each time point, and approximately 5 mL was collected from each piglet at each time point. Following blood collection at the 48 hour time point, the sow and piglets was euthanized and disposed of per study site procedures. […]
Plasma concentrations of firocoxib were measured with high-pressure liquid chromatography-tandem mass spectrometry (Shimadzu Prominence, Shimadzu Scientific Instruments, Columbia, Md., USA). […]
(§2) The standard curve of firocoxib concentration determined using porcine plasma was linear from 0.020 to 5.0 μg/mL and was accepted when the correlation coefficient exceeded 0.99 and measured values were within 15% of the actual values. The lower limit of quantification, defined as the lowest concentration on a linear standard curve with predicted concentrations within 15% of the actual concentration, was 0.020 μg/mL.

[3] = Pharmacokinetics of firocoxib in a single sow after IM injection (Example 1); format: in vivo, swine; conditions: 1.5 mg/kg IM; for AUC: im, 1.5 mg/kg
From the text: The objective of this study was to characterize the pharmacokinetic profile and transmammary delivery of firocoxib in a single sow and her litter when administered via injection to provide analgesia to piglets via the milk prior to routine piglet processing procedures. One crossbred sow and her litter sourced from the MVS-Klitz Farm was used for this project. The sow was in good health, and had not received treatment with anti-inflammatory drugs by any route. The study sow was housed in a farrowing crate. Feed and water was provided ad libitum throughout the study period. No additional medications were provided. Study animals were identified using unique duplicate ear tags and/or tattoos.
There was one treatment group in this study (refer to Table 1). The sow was given firocoxib (20 mg/mL) on Study Day 0. Firocoxib was administered via injection five (+/−2) days post-farrow, at 1.5 mg/kg IM.
as §1
Approximately 10 mL of blood was collected from the sow at each time point, and approximately 5 mL was collected from each piglet at each time point. Following blood collection at the 48 hour time point, the sow and piglets was euthanized and disposed of per study site procedures.
Samples were stored on ice after collection and before processing. Blood samples were centrifuged for 10 minutes at 1,500 g. Collected plasma was placed in duplicate cryovials with a single-use transfer pipette and frozen at −70° C. until analysis. Cryovials were labeled with the time point and collection date.
Plasma concentrations of firocoxib were measured with high-pressure liquid chromatography-tandem mass spectrometry (Shimadzu Prominence, Shimadzu Scientific Instruments, Columbia, Md., USA). Briefly, frozen samples or standards were thawed at room temperature and rigorously vortexed once completely thawed. A 200 μL plasma sample was added to 400 μL 5% Acetic Acid and the internal standard celecoxib (20 μg/mL). The entire diluted sample was added to a 3 mL solid phase extraction tubes (OASIS) which was conditioned prior with methanol (2 ml) and equilibrated with water (2 ml). The sample was then gravity filtered through the solid phase extraction tubes and subsequently washed with 1 ml 5% acetic acid, followed by 1 ml solution of 25% methanol/75% water. Using 2×0.75 mL acetonitrile, firocoxib was eluted into a glass tube and an additional internal standard piroxicam (10 ng/μL) was added. Samples were evaporated to dryness at 48° C. under a stream of nitrogen, reconstituted with […] 25% in water and pipetted into an injection vial for LC-MS/MS analysis with the injection volume set to 10 μL. The mobile phase consisted of acetonitrile and formic acid (0.1%) at a flow rate of 0.4 mL/min. The concentration of this mobile phase began at 85% formic acid (0.1%) from 0 to 0.5 minutes with a linear gradient to 50% formic acid (0.1%) at 2.5 minutes, which was maintained until 3 minutes, followed by a linear gradient to 85% formic acid (0.1%) at 4 minutes with a total run time of 5 minutes.
as §2
Firocoxib time concentration data was analyzed using a commercially available computer software program (Kinetica, Thermo Scientific).

[4] = Piglet average daily gain (ADG) from processing to weaning; format: in vivo, swine; conditions: piglets; for Average Daily Gain (ADG) Mean Difference: least squares means
Protocol: On day 21 post-drug injection in the sow, the body weight of each sow and piglet was recorded before weaning to calculate average daily weight gain.
Plasma cortisol concentrations and ADG were analyzed using a nonlinear mixed-effects analysis incorporating both fixed effects and random effects (PROC GLMMIX; SAS university edition v9.04.01, SAS Institute, Cary, N.C.). The population cortisol concentrations best fit a lognormal model. Time, treatment and their interaction were designated as fixed effects in the model with piglet nested in sow designated as a random effect. The effect of gender across treatments was examined using ANOVA to confirm that data from female piglets could be pooled to serve as a procedural control. Sow parity was also included as a covariate in the model. Where there was evidence of a treatment-by-time interaction (P<0.1), simple effect comparisons of LS means were conducted using the Tukey-Kramer adjustment for multiple comparisons. ADG outcomes best fit a Gaussian distribution. The effect of gender across treatments was also examined by ANOVA to clarify the effect of drug exposure from the effect of processing. For both outcomes, statistical significance was set a priori at P<0.05.
Eight piglets died between processing and weaning. Average daily gain in body weight (ADG) of the surviving piglets over the 21 d from processing to weaning was calculated by subtracting the body weight at processing from the body weight at weaning and dividing the result by the days from processing to weaning (FIG. 12 and FIG. 13). […] Specifically, ADG increased with the increasing doses of firocoxib administered to the lactating sows via injection.

[5] = female, crossbred, swine, plasma

CC1(C)OC(=O)C(OCC2CC2)=C1c1ccc(S(C)(=O)=O)cc1 [firocoxib]
macroscopic lesions on post-mortem examination ([1]; kidney, liver, stomach and small intestines, sows and piglets): No macroscopic lesions were evident
Kidney: Focal interstitial nephritis (number of sows) ([1]; sows, 0.5 mg/kg IM): 2
Kidney: Mild tubular ectasia (number of sows) ([1]; sows, 0.5 mg/kg IM): 1
Kidney: Within normal limits (number of sows) ([1]; sows, 0.5 mg/kg IM): 1
Liver: Within normal limits (number of sows) ([1]; sows, 0.5 mg/kg IM): 4
Small Intestine: Within normal limits (number of sows) ([1]; sows, 0.5 mg/kg IM): 4
Stomach: Within normal limits (number of sows) ([1]; sows, 0.5 mg/kg IM): 4
Kidney: Focal interstitial nephritis (number of sows) ([1]; sows, 1.0 mg/kg IM): 1
Kidney: Mild tubular ectasia (number of sows) ([1]; sows, 1.0 mg/kg IM): 2
Kidney: Within normal limits (number of sows) ([1]; sows, 1.0 mg/kg IM): 1
Liver: Within normal limits (number of sows) ([1]; sows, 1.0 mg/kg IM): 4
Small Intestine: Within normal limits (number of sows) ([1]; sows, 1.0 mg/kg IM): 4
Stomach: Within normal limits (number of sows) ([1]; sows, 1.0 mg/kg IM): 4
Kidney: Focal interstitial nephritis (number of sows) ([1]; sows, 1.5 mg/kg IM): 0
Kidney: Mild tubular ectasia (number of sows) ([1]; sows, 1.5 mg/kg IM): 1
Kidney: Within normal limits (number of sows) ([1]; sows, 1.5 mg/kg IM): 3
Liver: Within normal limits (number of sows) ([1]; sows, 1.5 mg/kg IM): 4
Small Intestine: Within normal limits (number of sows) ([1]; sows, 1.5 mg/kg IM): 4
Stomach: Within normal limits (number of sows) ([1]; sows, 1.5 mg/kg IM): 4
Kidney: Focal interstitial nephritis (number of sows) ([1]; sows, 2.0 mg/kg IM): 2
Kidney: Mild tubular ectasia (number of sows) ([1]; sows, 2.0 mg/kg IM): 1
Kidney: Within normal limits (number of sows) ([1]; sows, 2.0 mg/kg IM): 1
Liver: Within normal limits (number of sows) ([1]; sows, 2.0 mg/kg IM): 4
Small Intestine: Within normal limits (number of sows) ([1]; sows, 2.0 mg/kg IM): 4
Stomach: Within normal limits (number of sows) ([1]; sows, 2.0 mg/kg IM): 4
kidneys with ectatic tubules (number) ([1]; sows, all treatment groups): 5
plasma drug concentrations in piglets [2]: above 10 ng/mL
% AUCextra [3]: 33.02%
AUMCextra [3]: 322.22 μg/mL * (h)^2
AUMClast [3]: 155.18 μg/mL * (h)^2
AUMtot [3]: 477.39 μg/mL * (h)^2
Clearance [3]: 32.45 L/h
Vss [3]: 1390.95 L
Vz [3]: 1285.61 L
AUC(0-t) ([3]; female, crossbred, pig, plasma): 7460 ng·h/mL
MRT ([3]; female, crossbred, pig, plasma): 42.9 h
MRT last ([3]; female, crossbred, pig, plasma): 20.8 h
half-life ([3]; female, crossbred, pig, plasma): 1650 min
AUC ([3]; female, crossbred, pig, plasma, read-out: AUCextra): 3680 ng·h/mL
AUC ([3]; female, crossbred, pig, plasma, read-out: AUCtot): 11100 ng·h/mL
Cmax [3, 5]: 287 ng/mL
Tmax [3, 5]: 6 h
average daily gain, dose dependence ([4]; 21 d after processing, sow doses 0.5-2.0 mg/kg IM): dose-dependent increase in average daily gain
Average Daily Gain (ADG) Mean Difference ([4]; sow dose 0.5 mg/kg vs 1.0 mg/kg): 2.56 g
Average Daily Gain (ADG) Mean Difference ([4]; sow dose 0.5 mg/kg vs 1.5 mg/kg): -17.98 g
Average Daily Gain (ADG) Mean Difference ([4]; sow dose 0.5 mg/kg vs 2.0 mg/kg): -39.01 g
Average Daily Gain (ADG) Mean Difference ([4]; sow dose 1.0 mg/kg vs 1.5 mg/kg): -20.54 g
Average Daily Gain (ADG) Mean Difference ([4]; sow dose 1.0 mg/kg vs 2.0 mg/kg): -41.57 g
Average Daily Gain (ADG) Mean Difference ([4]; sow dose 1.5 mg/kg vs 2.0 mg/kg): -21.03 g
weight gain (ADG) over 21 d from processing to weaning ([4]; sow dose 2.0 mg/kg vs 0.5 mg/kg (P=0.0076) or 1.0 mg/kg (P=0.0047)): gained more weight
